# Measurements published in US20100311674A1, “PHARMACEUTICAL COMPOSITIONS WITH A MECHANISM OF MULTI-TARGET RECEPTOR RETROACTION FOR TREATING DEPRESSION” (Yu-Fen Chi, priority 2007, published 2010).
# System: unpredictable long-term stimulus model
# Test: Rat swimming by compulsion, unpredictable long-term stimulus model (Experiment 8)
# Assay type: in vivo
# Settings: 2 mg/kg/d into the stomach, 24 days; 1 h after dose; last 5 minutes
# Experimental: Unpredictable long-term stimulus model: Health Wistar male rats, secondary, 240˜270 g of body weight, are purchased from Beijing Vital River Experimental Animal Technology Ltd. Co. (The quality certificate number: SOCK (JING) 2002-2003).
# The above pharmaceuticals are prepared with 0.5% of sodium carboxymethylcellulose (CMC-Na) for feeding into the stomach. Benzylpenicillin sodium for injection is the product of North China Pharmaceutical Huasheng Co. Ltd. (Lot: S0511204), and norepinephrine (NE) and 5-hydrotryptamine (5-HT) standards are the products of Sigma Co. Other reagents are all marketed.
# 8.4.1 Group division and administration of drug: The rats are grouped randomly into 6 groups. 1. False therapy group; 2. model group (control); 3. high dose of Embodiment 4 (60 mg/kg/d); 4. middle dose of Embodiment 4 (30 mg/kg/d); 5. low dose of Embodiment 4 (15 mg/kg/d); and 6. […]
# 8.5.3 Rat swimming by compulsion: This experiment is proceeded for two days after the last administration of drug. […] After 1 hour of administration of drug, the rat is placed in the tank, and the time of non-movement of the rat for the last 5 minutes is recorded.
# 8.6 Statistic calculation: The experimental data are represented as […], and the experimental result is calculated as ANOVA by SPSS 11.5 statistic software.
compound,measurement,value
Fc1ccc([C@@H]2CCNC[C@H]2COc2ccc3c(c2)OCO3)cc1 [Paroxetine],Time of non-movement,31.38 ± 19.59 s
